“Also recorded” adds a separate entry of the source. No end group written: not given here. Some results are limits rather than exact numbers.

In experiment [1] the test system is F11 cells. Put plainly: F11 cell death induced by transfection of FAD genes, trypan blue exclusion assay. Type of experiment: cell-based. As for the experimental part:
(§1) F11 cells (Platika, D. et al. (1985) Proc. Natl. Acad. Sci. U.S.A. 82, 3499-3503; Yamatsuji, T. et al. (1996) Science 272, 1349-1352) were cultured in HamF-12 media containing 18% fetal bovine serum (FBS) and antibiotics. 7×10^4/well of F11 cells were seeded into a 6-well plate; cultured in HamF-12 containing 18% FBS for 12 to 16 hours; transfected 3 hours with plasmids encoding FAD genes and plasmids encoding HN (pHN, and such) by lipofection in the absence of serum (1 μg of FAD cDNA expression plasmid, 1 μg of HN cDNA expression plasmid, 4 μl of LipofectAMINE, 8 μl of Plus reagent); and then, were cultured for 2 hours in HamF-12 media containing 18% FBS. Then, culture media were exchanged with HamF-12 media containing 10% FBS; and the cells were cultured for additional 67 hours. 72 hours after transfection, cell death was measured by trypan blue exclusion assay. Experiments using synthetic HN polypeptides were conducted as follows: F11 cells (at 7×10^4/well in a 6-well plate) were transfected 3 hours with FAD genes in the absence of serum, as mentioned above; after cultivation for 2 hours in HamF-12 media containing 18% FBS, the cells were cultured for 67 hours in HamF-12 media containing 10% FBS with various concentrations of HN polypeptides; and cell death was measured by trypan blue exclusion assay. ALS-associated mutant cDNAs of SOD1 were also similarly transfected, and examined for their neurotoxicity.
(§2) Trypan blue exclusion assay was performed as follows. Without prewashing, the cells were suspended with gentle pipetting into a serum-free media. 50 μl of 0.4% trypan blue solution (Sigma, Cat. #T-8154) were added (final concentration of 0.08%) to 200 μl cell suspension, and the suspension was mixed at room temperature. Within 3 minutes of the trypan blue solution addition, stained cells were counted. Cell mortality was determined [100−cell survival rate (%)] based on the stained cell count. LDH assay was performed using a kit (LDH-Cytotoxic Test; Wako Pure Chemical Industries, Cat. #299-50601) by sampling 6 μl of media in which neurons were cultured. Calcein staining was performed as described in literature (Bozyczko-Coyne, D. et al. (1993) Journal of Neuroscience Methods 50, 205-216). Specifically, 6 μM Calcein-AM {3′,6′-Di-(O-acetyl)-2′,7′-bis[N,N-bis(carboxymethyl)aminomethyl]fluorescein, tetraacetoxymethyl ester; Dojindo, Cat. #349-07201} was added to the neurons; and 30 minutes or longer after Calcein-AM treatment, fluorescence (ex=490 nm, em=515 nm) was observed by fluorescence microscopy, and measured by a spectrometer. Specific fluorescence was calculated by subtracting basal fluorescence from total fluorescence. Basal fluorescence was assigned to be the value calculated from linear trypan blue positivity-fluorescence intensity relationship, corresponding to 100% trypan blue positivity.

Experiment [2] relates to F11/EcR cells. As to the kind of experiment: F11/EcR cell death caused by ecdysone-induced expression of FAD genes, trypan blue exclusion assay. Type of experiment: cell-based. Conditions: treated with 1M sHN (so in the source); NL-APP, V642I APP, M146L PS-1 or N141I PS-2; ecdysone 72 h. The procedure:
F11/EcR cell experiment using ecdysone was conducted as follows: F11/EcR cells were seeded at 7×10^4/well into a 6-well plate; cultured for 12 to 16 hours in HamF-12 media containing 18% FBS; and were similarly transfected in the absence of serum for 3 hours with 1 μg of ecdysone-inducible plasmid alone, or with 1 μg of HN-encoding plasmid, as mentioned above. After culturing for 12 to 16 hours in HamF-12 media containing 18% FBS, the cells were cultured for 2 hours in HamF-12 media containing 10% FBS, then ecdysone (Ponasterone) was added to the media (final concentration of 40 μM). Cell death was measured 72 hours after ecdysone treatment. […] Cell death was measured by trypan blue exclusion assay after 72 hours from the ecdysone treatment. […]
(§3) Trypan blue exclusion assay was performed as follows. […] Within 3 minutes of the trypan blue solution addition, stained cells were counted. Cell mortality was determined [100−cell survival rate (%)] based on the stained cell count. […] Specifically, 6 μM Calcein-AM {3′,6′-Di-(O-acetyl)-2′,7′-bis[N,N-bis(carboxymethyl)aminomethyl]fluorescein, tetraacetoxymethyl ester; Dojindo, Cat. #349-07201} was added to the neurons; and 30 minutes or longer after Calcein-AM treatment, fluorescence (ex=490 nm, em=515 nm) was observed by fluorescence microscopy, and measured by a spectrometer. […]

The subject of experiment [3] is F11/EcR cells. As to the kind of experiment: F11/EcR cell death caused by ecdysone-induced expression of polyglutamine Q79, trypan blue exclusion assay. Type of experiment: cell-based. Conditions: 1 μM polypeptide, ecdysone 72 h. The procedure: F11/EcR cell experiment using ecdysone was conducted as follows: F11/EcR cells were seeded at 7×10^4/well into a 6-well plate; cultured for 12 to 16 hours in HamF-12 media containing 18% FBS; and were similarly transfected in the absence of serum for 3 hours with 1 μg of ecdysone-inducible plasmid alone, or with 1 μg of HN-encoding plasmid, as mentioned above. After culturing for 12 to 16 hours in HamF-12 media containing 18% FBS, the cells were cultured for 2 hours in HamF-12 media containing 10% FBS, then ecdysone (Ponasterone) was added to the media (final concentration of 40 μM). Cell death was measured 72 hours after ecdysone treatment. Experiments using synthetic HN polypeptides were conducted as follows: cells were similarly transfected for 3 hours with FAD genes in the absence of serum; cultured for 12 to 16 hours in HamF-12 media containing 18% FBS; cultured for 2 hours in HamF-12 media containing 10% FBS and various concentrations of HN polypeptide; and then, 40 μM Ponasterone was added to the media. Cell death was measured by trypan blue exclusion assay after 72 hours from the ecdysone treatment. HD/SCA-associated Q79 cDNAs were also similarly transfected, and the neurotoxicity was tested.
Trypan blue exclusion assay was performed as follows. […] Within 3 minutes of the trypan blue solution addition, stained cells were counted. Cell mortality was determined [100−cell survival rate (%)] based on the stained cell count. […] Specifically, 6 μM Calcein-AM {3′,6′-Di-(O-acetyl)-2′,7′-bis[N,N-bis(carboxymethyl)aminomethyl]fluorescein, tetraacetoxymethyl ester; Dojindo, Cat. #349-07201} was added to the neurons; and 30 minutes or longer after Calcein-AM treatment, fluorescence (ex=490 nm, em=515 nm) was observed by fluorescence microscopy, and measured by a spectrometer. Specific fluorescence was calculated by subtracting basal fluorescence from total fluorescence. Basal fluorescence was assigned to be the value calculated from linear trypan blue positivity-fluorescence intensity relationship, corresponding to 100% trypan blue positivity.

Experiment [4] has as its system F11 cells. As to the kind of experiment: F11 cell death induced by ALS-associated SOD1 mutants (A4T, G85R, G93A), trypan blue exclusion assay. Particulars: 100 μM polypeptide, G85R or G93A SOD1. Type of experiment: cell-based. As for the experimental part:
as §1
as §3, with “spectrometer. Specific fluorescence was calculated by subtracting basal fluorescence from total fluorescence.” for “spectrometer.”

The subject of experiment [5] is primary cultured cortical neurons. Put plainly: Aβ1-43-induced cell death of primary cultured cortical neurons (trypan blue, LDH release, Calcein-AM, morphology). Type of experiment: cell-based, mouse. Particulars: for effect on Aβ-induced cell death and dystrophic neuritic changes of the axon: 25 μM Aβ1-43, 72 h. The procedure: Primary culture of mouse cortical neurons was performed in poly-D-lysine-coated 24-well plates (Sumitomo Bakelite) in the absence of serum and in the presence of N2 supplement, as described in literature (Eksioglu, Y. Z. et al. (1994) Brain Res. 644, 282-90). The purity of neurons prepared according to the method was >98%. The prepared neurons (1.25×10^5/well, 250 μl media/well) were preincubated in the absence or presence of 10 nM or 10 μM sHN polypeptides for 16 hours; and were treated with 25 μM Aβ1-43 in the absence or presence of sHN polypeptides at the same concentrations for 24 to 72 hours. Since primary cultured neurons are damaged even by temporary dryness during medium exchange, treatment of the cells by Aβ1-43 was performed as follows. First, half of the volume of the old medium (125 μl) was discarded. Then, 125 μl of pre-warmed fresh medium containing 50 μM Aβ1-43 and sHN with a concentration indicated above were added to the culture.
as §2

Another experiment deals with primary cultured neurons. As to the kind of experiment: Etoposide-induced cell death of primary cultured neurons (trypan blue, LDH release). Type of experiment: cell-based, mouse. Conditions: 10 μM polypeptide, 20 μM etoposide, 72 h. The procedure:
25 μM Aβ1-43 was added to primary cultured cortical neurons in the presence (at indicated concentrations) or absence of sHN, sHNG, or sHNA. Addition of HN polypeptides was performed similarly to that described in FIG. 12. 72 hours after the initiation of Aβ treatment, cell death was measured by trypan blue exclusion assay. Primary cultured neurons treated similarly for 72 hours with 20 μM etoposide in the presence or absence of 10 μM sHN or HN derivatives were used as the positive controls in these experiments. Similar experiments were performed at least three times, and reproducible results were obtained. Mean ±S.D. values of three independent experiments are indicated in the graphs.
Cell damage was monitored as the amount of LDH released into the culture media. […] 24, 48, or 72 hours after the initiation of Aβ treatment, the amount of LDH in the culture media was measured. LDH release from neurons treated with 20 μM etoposide in the presence or absence of HN polypeptides was also measured. […]
Trypan blue exclusion assay was performed as follows. […] Within 3 minutes of the trypan blue solution addition, stained cells were counted. Cell mortality was determined [100−cell survival rate (%)] based on the stained cell count. […] Specific fluorescence was calculated by subtracting basal fluorescence from total fluorescence. […]

[6] abbreviates: 10 μM polypeptide, 25 μM Aβ1-43.

In the case of `CC[C@H](C)[C@H](NC(=O)[C@H](CCC(=O)O)NC(=O)[C@H](CO)NC(=O)[C@@H](NC(=O)[C@H](CC(C)C)NC(=O)[C@H](CC(C)C)NC(=O)[C@H](CC(C)C)NC(=O)[C@H](CC(C)C)NC(=O)[C@H](CS)NC(=O)[C@H](CO)NC(=O)[C@H](Cc1ccccc1)NC(=O)CNC(=O)[C@H](CCCNC(=N)N)NC(=O)[C@@H]1CCCN1C(=O)[C@H](C)NC(=O)[C@@H](N)CCSC)[C@@H](C)O)C(=O)N[C@@H](CC(=O)O)C(=O)N[C@@H](CC(C)C)C(=O)N1CCC[C@H]1C(=O)N[C@H](C(=O)N[C@@H](CCCCN)C(=O)N[C@@H](CCCNC(=N)N)C(=O)N[C@@H](CCCNC(=N)N)C(=O)N[C@@H](C)C(=O)O)C(C)C` [sHN], the “suppression of cell death induced by V642I APP” value in the experiment on F11 cells [1] (10 nM polypeptide, 72 h) is listed as “extremely weak suppression”; in the experiment with F11 cells [1] (10 μM polypeptide, 72 h) it was “dramatically suppressed”. Besides, the “concentration achieving complete suppression of cell death induced by V642I APP” value in the experiment on F11 cells [1] (72 h) fell in the range of 1 to 10 µM. Moreover, the “concentration blocking neuronal death induced by NL-APP, M146L PS-1 and N141I PS-2” value in the experiment on F11 cells [1] (any of the three FAD genes, 72 h) came to 1 µM. Also, in the experiment with F11/EcR cells [2], the “effect of synthetic polypeptide on cell death caused by ecdysone-induced expression of FAD genes” value is “complete suppression; also recorded: significant suppressive effect”. The “effect of synthetic polypeptide on neuronal death induced by Q79” value (“effect of synthetic polypeptide … by Q79” below) with F11/EcR cells [3] is listed as “not suppressed; also recorded: lack of effects”. For the same compound, the “effect of synthetic polypeptide on neuronal death induced by SOD1 mutants” value (“effect … by SOD1 mutants” below) in the experiment with F11 cells [4] is “couldn't be suppressed; also recorded: lack of the effect”. The “effect on Aβ-induced cell death and dystrophic neuritic changes of the axon” value in experiment [5] (10 nM polypeptide) is on record as “did not show any effect”; in experiment [5] (10 μM polypeptide) it was “dramatically suppressed”. In addition, the “cell damage (LDH released from the cells) after Aβ1-43 treatment” value in experiment [5] (setting [6]) was “completely restored to a level observed under basal conditions”. In addition, in experiment [5] (setting [6]), the “cell death (trypan blue exclusion) after Aβ1-43 treatment” value was “completely restored to a level observed under basal conditions”. Moreover, the “prevention of the toxic effect of etoposide on primary cultured neurons” value in the experiment with primary cultured neurons is given as “could not prevent”.

For MAPRGFSALLLLTSEIDLPVKRRA [sHNA], the “suppression of cell death induced by V642I APP” value in the experiment on F11 cells [1] (concentrations up to 100 μM) is “did not significantly suppress”. Besides, in the experiment on F11 cells [1] (up to a concentration of 100 μM), the “antagonism of cell death by NL-APP, M146L PS-1 and N141I PS-2” value is recorded as “did not antagonize”. Further, the “effect of synthetic polypeptide … by Q79” value with F11/EcR cells [3] is reported as “Extensive cell death; also recorded: lack of effects”. In addition, the “effect … by SOD1 mutants” value in the experiment with F11 cells [4] is on record as “couldn't be suppressed; also recorded: lack of the effect”. In addition, the “effect on Aβ-induced cell death and dystrophic neuritic changes of the axon” value in experiment [5] (10 μM polypeptide) is listed as “did not show any effect”.

As for MAPRGFSCLLLLTGEIDLPVKRRA [sHNG], the “concentration giving complete antagonizing effect on cell death induced by V642I APP” value with F11 cells [1] (72 h) was at most 10 nM. Moreover, the “concentration completely antagonizing neuronal death induced by all of the four different types of FAD genes” value in the experiment on F11 cells [1] (V642I APP, NL-APP, M146L PS-1, N141I PS-2) is at most 10 nM. Further, in the experiment on F11 cells [1] (any of the FAD genes, 72 h), the “concentration completely suppressing cell death caused by NL-APP, M146L PS-1 and N141I PS-2” value is recorded as at most 10 nM. Also, the “enhancement of the action of HN by S14G substitution” value with F11 cells [1] (relative to original HN) was 100 to 1000 fold. For the same compound, the “effect of synthetic polypeptide on cell death caused by ecdysone-induced expression of FAD genes” value in the experiment on F11/EcR cells [2] was “complete suppression”. The “effect of synthetic polypeptide … by Q79” value with F11/EcR cells [3] is given as “Extensive cell death; also recorded: lack of effects”. For the same compound, the “effect … by SOD1 mutants” value in the experiment with F11 cells [4] is recorded as “couldn't be suppressed; also recorded: lack of the effect”. Besides, the “effect on Aβ-induced cell death and dystrophic neuritic changes of the axon” value in experiment [5] (10 nM polypeptide) was “completely protected”.

As for “NGF: NGF tested at 100 ng/ml as comparator [reference compound]”, in experiment [5] (100 ng/ml, data not shown), the “antagonism of cell death of neurons induced by Aβ” value is recorded as “did not show effects to antagonize” and the “antagonism of increased LDH release induced by Aβ” value is reported as “did not show effects to antagonize”.

The record behind these values is patent publication US7410757B1, “Method of screening disease depressant gene” (Keio University, priority 1999, dated 2008).
